What was measured:
[1] = target: Human immunodeficiency virus type 1 protease (Human immunodeficiency virus 1, UniProt Q72874); experiment: Evaluated for inhibitory activity against HIV-1 protease
[2] = test system: CV-1; experiment: Antiviral efficacy measured by a hybrid HIV-l/vaccinia virus infected monkey cell line (HIV- l/vVK-1 infected CV- 1) which produces HIV-1 gag-pol derived polyproteins at 10 uM concentration; assay type: functional, Human immunodeficiency virus 1; details: Chlorocebus aethiops
[3] = test system: CV-1; experiment: Antiviral efficacy measured by a hybrid HIV-l/vaccinia virus infected monkey cell line (HIV- l/vVK-1 infected CV- 1) which produces HIV-1 gag-pol derived polyproteins; assay type: functional, cell-based, Human immunodeficiency virus 1; details: Chlorocebus aethiops
[4] = target: T1, Renin (Homo sapiens, UniProt P00797); experiment: Compound was evaluated for aspartyl protease inhibition selectivity relative to renin
T1 sequence (P00797 whole entry): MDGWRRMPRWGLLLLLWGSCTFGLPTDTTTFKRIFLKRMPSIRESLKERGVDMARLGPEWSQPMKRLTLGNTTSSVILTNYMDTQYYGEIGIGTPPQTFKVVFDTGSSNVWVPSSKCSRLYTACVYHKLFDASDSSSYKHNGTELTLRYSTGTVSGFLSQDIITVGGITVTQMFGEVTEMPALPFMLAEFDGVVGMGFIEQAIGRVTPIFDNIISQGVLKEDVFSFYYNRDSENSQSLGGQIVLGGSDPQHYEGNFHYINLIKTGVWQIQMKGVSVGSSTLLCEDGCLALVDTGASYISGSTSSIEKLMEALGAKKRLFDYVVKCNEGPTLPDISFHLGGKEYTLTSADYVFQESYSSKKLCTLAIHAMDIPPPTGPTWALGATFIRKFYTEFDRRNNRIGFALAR

[5] = target: T2, Cathepsin E (Homo sapiens, UniProt P14091); experiment: Compound was evaluated for aspartyl protease inhibition selectivity relative to Cathepsin E
T2 sequence (P14091 whole entry): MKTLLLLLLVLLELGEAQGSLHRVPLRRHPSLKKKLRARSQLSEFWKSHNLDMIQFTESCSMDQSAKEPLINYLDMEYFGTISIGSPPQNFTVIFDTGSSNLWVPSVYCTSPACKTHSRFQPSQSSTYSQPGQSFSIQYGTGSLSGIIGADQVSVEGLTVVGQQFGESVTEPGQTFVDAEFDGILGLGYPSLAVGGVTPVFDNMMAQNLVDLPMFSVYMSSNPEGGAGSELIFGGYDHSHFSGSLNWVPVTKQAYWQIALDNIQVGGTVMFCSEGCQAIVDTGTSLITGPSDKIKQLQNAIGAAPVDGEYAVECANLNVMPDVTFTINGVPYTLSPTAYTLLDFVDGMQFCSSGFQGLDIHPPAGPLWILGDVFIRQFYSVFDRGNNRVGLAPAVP

[6] = target: Pepsin A (Sus scrofa, UniProt P00791); experiment: Compound was evaluated for aspartyl protease inhibition selectivity relative to pepsin; design: species or system Homo sapiens
Sequence of Pepsin A (P00791 whole entry): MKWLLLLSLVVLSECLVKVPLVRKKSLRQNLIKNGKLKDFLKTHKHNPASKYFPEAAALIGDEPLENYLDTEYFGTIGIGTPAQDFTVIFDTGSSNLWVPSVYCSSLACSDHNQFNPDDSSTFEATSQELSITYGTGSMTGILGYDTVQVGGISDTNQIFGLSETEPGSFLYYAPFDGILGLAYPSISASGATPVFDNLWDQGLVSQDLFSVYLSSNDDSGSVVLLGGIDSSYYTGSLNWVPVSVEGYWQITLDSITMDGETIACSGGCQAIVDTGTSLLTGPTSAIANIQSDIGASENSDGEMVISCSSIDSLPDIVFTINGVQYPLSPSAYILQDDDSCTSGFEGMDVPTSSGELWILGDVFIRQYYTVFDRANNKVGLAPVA

[7] = target: Cathepsin D (Homo sapiens, UniProt P07339); experiment: Compound was evaluated for aspartyl protease inhibition selectivity relative to Cathepsin D
Sequence of Cathepsin D (P07339 65-162 limits assumed): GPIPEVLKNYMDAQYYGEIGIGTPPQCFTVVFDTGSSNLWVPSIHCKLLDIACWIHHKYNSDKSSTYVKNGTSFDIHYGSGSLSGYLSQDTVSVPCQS
Sequence of Cathepsin D (P07339 169-412 limits assumed): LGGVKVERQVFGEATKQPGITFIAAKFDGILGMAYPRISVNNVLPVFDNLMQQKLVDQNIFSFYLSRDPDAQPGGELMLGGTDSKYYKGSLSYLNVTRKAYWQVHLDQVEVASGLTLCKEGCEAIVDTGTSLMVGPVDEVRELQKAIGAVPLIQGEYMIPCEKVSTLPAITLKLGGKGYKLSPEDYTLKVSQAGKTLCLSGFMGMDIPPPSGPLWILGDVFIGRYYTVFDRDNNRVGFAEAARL

Structure (SMILES)	Ki [1] [nM]	inhibition at 10 µM [2] [%]	IC50 [3] [nM]	Ki [4] [nM]	Ki [5] [nM]	Ki [6] [nM]	Ki [7] [nM]
CCC(C)[C@H](NC(=O)[C@@H](C[C@H](O)[C@H](CC1CCCCC1)NC(=O)[C@H](Cc1cn(C)cn1)NC(=O)COc1cccc2ccccc12)C(C)C)C(=O)NCc1ccccn1 (some centres undefined)	30	85	500				
CCC(C)[C@H](NC(=O)[C@@H](C[C@H](O)[C@H](CC1CCCCC1)NC(=O)[C@H](Cc1c[nH]cn1)NC(=O)COc1cccc2ccccc12)C(C)C)C(=O)NCc1ccccn1 (some centres undefined)	5	100	300	2	50	290	200
CC[C@H](C)[C@H](NC(=O)[C@@H](C[C@H](O)[C@H](CC1CCCCC1)NC(C)=O)C(C)C)C(=O)NCc1cccc[n+]1[O-]	16	20					
CCC(C)[C@H](NC(=O)[C@@H](C[C@H](O)[C@H](CC1CCCCC1)NC(=O)OC(C)(C)C)C(C)C)C(=O)NCc1ccccn1 (some centres undefined)	8	100	300	1200	90	330	100
CCC(C)[C@H](NC(=O)[C@@H](C[C@H](O)[C@H](CC1CCCCC1)NC(=O)[C@H](Cc1cnc[nH]1)NC(=O)OC(C)(C)C)C(C)C)C(=O)NCc1ccccn1 (some centres undefined)	10	53	10000				
CCC(C)[C@H](NC(=O)[C@@H](C[C@H](O)[C@H](CC1CCCCC1)NC(=O)[C@@H](NC(=O)COc1cccc2ccccc12)C(C)C)C(C)C)C(=O)NCc1ccccn1 (some centres undefined)	61	93	300				
CCC(C)[C@H](NC(=O)[C@@H](C[C@H](O)[C@H](CC1CCCCC1)NC(=O)[C@H](CC(N)=O)NC(=O)c1ccc2ccccc2n1)C(C)C)C(=O)NCc1ccccn1 (some centres undefined)	9	97	300	212	3	12	2
CCC(C)[C@H](NC(=O)[C@@H](C[C@H](O)[C@H](CC1CCCCC1)NC(=O)[C@H](CC(N)=O)NC(=O)COc1cccc2ccccc12)C(C)C)C(=O)NCc1ccccn1 (some centres undefined)	4	93	300				
CCC(C)[C@H](NC(=O)[C@@H](C[C@H](O)[C@H](CC1CCCCC1)NC(=O)COc1ccccc1)C(C)C)C(=O)NCc1ccccn1 (some centres undefined)	61	90	3000				
CC[C@@H](C)[C@@H](NC(=O)[C@@H](C[C@H](O)[C@H](CC1CCCCC1)NC(C)=O)C(C)C)C(=O)NCc1ccccn1	> 1000	22					
CCCCCC(=O)N[C@@H](CC1CCCCC1)[C@@H](O)C[C@H](C(=O)N[C@H](C(=O)NCc1ccccn1)C(C)CC)C(C)C (some centres undefined)	47	67	3000				
CC[C@H](C)[C@H](NC(=O)[C@@H](C[C@H](O)[C@H](CC1CCCCC1)NC(C)=O)C(C)C)C(=O)NCc1ccccn1	8	50					
CC[C@H](C)[C@H](NC(=O)[C@H](C(C)C)[C@@H](O)[C@H](O)[C@H](CC1CCCCC1)NC(=O)[C@H](Cc1c[nH]cn1)NC(=O)COc1cccc2ccccc12)C(=O)NCc1ccccn1	< 1	100	200	2	142	265	> 1000
CCC(C)[C@H](NC(=O)[C@@H](C[C@H](O)[C@H](CC1CCCCC1)NC(=O)CC(C)(C)C)C(C)C)C(=O)NCc1ccccn1 (some centres undefined)	75	75	3000				
CCC(C)[C@H](NC(=O)[C@@H](C[C@H](O)[C@H](CC1CCCCC1)NC(=O)[C@H](CC(N)=O)NC(=O)c1ccc2ccccc2n1)C(C)C)C(=O)O (some centres undefined)		0					
CC[C@H](C)[C@H](NC(=O)[C@@H](C[C@H](O)[C@@H](N)CC1CCCCC1)C(C)C)C(=O)NCc1ccccn1	800	0					
CC(C)[C@H](C[C@H](O)[C@H](CC1CCCCC1)NC(=O)C(CC(N)=O)NC(=O)c1ccc2ccccc2n1)C(=O)NCC(C)(C)C (some centres undefined)	14	70	300				
CCC(C)[C@H](NC(=O)[C@@H](C[C@H](O)[C@H](CC1CCCCC1)NC(=O)c1ccccn1)C(C)C)C(=O)NCc1ccccn1 (some centres undefined)	8	100	300				

— ChEMBL document CHEMBL1127224, “Peptidomimetic inhibitors of human immunodeficiency virus protease (HIV-PR): Design, enzyme binding and selectivity, antiviral efficacy, and cell permeability properties” (Bioorg Med Chem Lett, 1993)
